Results reported in patent publication US20260224573A1, “CRYSTAL FORM OF COMPOUND, AND PREPARATION METHOD AND USE THEREOF” (FELICAMED BIOTECHNOLOGY CO., LTD., priority 2023, published 2026).
In brackets after ≈: the same amount, converted by molar mass. Read-outs that look alike come from different tables or passages of the source.

Tests used:
[1] = remark: listed apart in the source
Experimental: A method for testing the density and the tapped density included: (1) a certain mass of to-be-assessed sample was placed into a 5 mL measuring cylinder, and the volume at this moment was recorded. The bulk density was calculated by dividing the mass of the sample by the volume at this moment. (2) The measuring cylinder was slightly tapped 200 times, the final volume was recorded, and the tapped density was calculated by dividing the mass of the sample by the final volume. (3) Three parallel tests were conducted. A method for testing the angle of repose included: (1) a funnel was fixed vertically to a bottom surface, and the material was slowly placed into the funnel. (2) A well-proportioned cone of the material was formed on the bottom surface. The height and bottom surface diameter of the cone were measured. (3) Three parallel tests were conducted.

[2] = Assessment of 24-h solubility in pH buffers; type: physicochemical; conditions: room temperature
[3] = remark: listed apart in the source
From the text: DVS isotherms were collected on an SMS (Surface Measurement Systems) DVS Intrinsic.

[4] = Assessment of dynamic solubility; type: physicochemical; conditions: for FC: crystal transfer (XRPD of solid) / pH of filtrate: 37° C.; for solubility / solubility at 1 h / solubility at 2 h / solubility at 4 h / solubility at 24 h: 37 °C, thermodynamic from solid; for solubility at 1 h / solubility at 2 h / solubility at 4 h / solubility at 24 h: read-out: S: solubility, calculated as free form
[5] = Pharmacokinetics of free crystal form A in Beagle dogs; type: in vivo; conditions: for MRT last: read-out: MRT0-t; for bioavailability: from average AUC0-t after dose correction, read-out: F (oral bioavailability)
Experimental: All the animals in this experiment were randomly divided into 4 groups (3 dogs/sex/group). The animals in the group A, the group B, and the group D were fasted before administration, and the animals in the group C were fasted before the first administration and the last administration. All the animals were fasted for at least 12 h before administration, and food was resumed 4 h after administration. All the animals had free access to water and food during the experiment. The animals in the group A were intravenously injected with the drug at 2 mg/kg, and blood samples were collected from the jugular vein before and 0.033 […], and 24 h after administration. The animals in the group B and the group D received single intragastric administration of the drugs at 2 mg/kg and 20 mg/kg, respectively, and blood samples were collected from the jugular vein before and 0.083 […], and 24 h after administration. […] Blood samples were collected from the jugular vein before the first administration and the seventh administration and 0.083 […], and 24 h after administration. Blood samples were collected from the jugular vein before administration and 0.5 h after administration from the second administration to the sixth administration. The sample collected before the second administration was the sample collected 24 h after the first administration. The blood samples from the animals were collected through the jugular vein, with a blood sample volume of 0.5 mL/time. All collected whole blood samples were placed in centrifuge tubes containing ethylene diamine tetraacetic acid potassium salt (EDTA-K2), and the centrifuge tubes were turned upside down to allow the anticoagulant and blood to be fully mixed. All the samples were placed on wet ice before centrifugation and centrifuged at 1524 g for 10 min to separate plasma. The plasma samples were transferred to new centrifuge tubes and stored at -90° C. to […] until analysis. The drug concentration in the plasma of each Beagle dog was determined by liquid chromatography with tandem mass spectrometry (LC-MS/MS). The obtained plasma concentration data was analyzed by using the pharmacokinetic processing software WinNonlin 8.0 with a non-compartmental model to calculate relevant pharmacokinetic parameters.

[6] = both sexes, Beagle, dog, plasma, po, 2 mg/kg, i.g. 2 mg/kg single, male/female mean
[7] = both sexes, Beagle, dog, plasma, po, 6 mg/kg, i.g. 6 mg/kg once a day, seventh administration, male/female mean
[8] = both sexes, Beagle, dog, plasma, po, 6 mg/kg, i.g. 6 mg/kg, first administration, male/female mean
[9] = both sexes, Beagle, dog, plasma, po, 20 mg/kg, i.g. 20 mg/kg single, male/female mean
[10] = both sexes, Beagle, dog, plasma, po, i.g. 2 mg/kg single, male/female mean
[11] = both sexes, Beagle, dog, plasma, po, i.g. 6 mg/kg once a day, seventh administration, male/female mean
[12] = both sexes, Beagle, dog, plasma, po, i.g. 6 mg/kg, first administration, male/female mean
[13] = both sexes, Beagle, dog, plasma, po, i.g. 20 mg/kg single, male/female mean
[14] = both sexes, beagle, dog, plasma, iv, 2 mg/kg, i.v. 2 mg/kg, male and female, mean
[15] = both sexes, beagle, dog, plasma, iv, i.v. 2 mg/kg, male and female, mean

CC[S@@](=N)(=O)C[C@H]1CC[C@H](N(C)c2ncnc3[nH]ccc23)CC1 [Free crystal form A]
UPLC peak Area, RRT 1.00 (25° C./60% RH/4 weeks): 99.71%
UPLC peak Area, RRT 1.47 (25° C./60% RH/4 weeks): 0.06%
UPLC peak Area, RRT 1.63 (25° C./60% RH/4 weeks): 0.05%
UPLC peak Area, RRT 2.10 (25° C./60% RH/4 weeks): 0.10%
UPLC peak Area, RRT 2.94 (25° C./60% RH/4 weeks): 0.07%
Crystal form Transform (25° C./60% RH/4 weeks, open): No
Purity (25° C./60% RH/4 weeks, open): 99.71 area %
UPLC peak Area, RRT 1.00 (40° C./75% RH/4 weeks): 99.72%
UPLC peak Area, RRT 1.47 (40° C./75% RH/4 weeks): 0.06%
UPLC peak Area, RRT 1.63 (40° C./75% RH/4 weeks): 0.05%
UPLC peak Area, RRT 2.10 (40° C./75% RH/4 weeks): 0.10%
UPLC peak Area, RRT 2.94 (40° C./75% RH/4 weeks): 0.07%
Crystal form Transform (40° C./75% RH/4 weeks, open): No
Purity (40° C./75% RH/4 weeks, open): 99.72 area %
UPLC peak Area, RRT 1.47 (80° C./1 d): 0.06%
UPLC peak Area, RRT 1.63 (80° C./1 d): 0.05%
UPLC peak Area, RRT 2.10 (80° C./1 d): 0.10%
UPLC peak Area, RRT 2.94 (80° C./1 d): 0.08%
Crystal form Transform (80° C./1 d, closed): No
UPLC peak Area, RRT 1.47 (Starting): 0.05%
UPLC peak Area, RRT 1.63 (Starting): 0.05%
UPLC peak Area, RRT 2.10 (Starting): 0.10%
UPLC peak Area, RRT 2.94 (Starting): 0.07%
flowability ([1]; conclusion from Carr index and angle of repose): high flowability
Bulk density ([1]; single tests 1 to 3): 0.11 g/mL
Tapped density ([1]; single tests 1 to 3, tapped 200 times): 0.23 g/mL
Average bulk density ([1]; three parallel tests): 0.11 g/mL
Average tapped density ([1]; three parallel tests, tapped 200 times): 0.23 g/mL
FC: crystal transfer ([2]; Buffer (pH = 2.0)): No
FC: crystal transfer ([2]; Buffer (pH = 7.4)): No
solubility at 24 h ([2]; buffer pH 7.4, pH 7.4, aqueous buffer, thermodynamic from solid, Buffer (pH = 7.4), read-out: S: solubility, calculated as free form): 1700 µg/mL (≈ 5.07 mM)
hygroscopicity ([3]; 25° C./80% RH): slight hygroscopicity
Crystal transformation after DVS ([3]; XRPD before and after DVS): No
FC: crystal transfer (XRPD of solid) ([4]; FaSSIF, 1 h): No
pH of filtrate ([4]; FaSSIF, 1 h): 6.6
FC: crystal transfer (XRPD of solid) ([4]; FaSSIF, 2 h): No
pH of filtrate ([4]; FaSSIF, 2 h): 6.6
FC: crystal transfer (XRPD of solid) ([4]; FaSSIF, 4 h): No
pH of filtrate ([4]; FaSSIF, 4 h): 6.6
FC: crystal transfer (XRPD of solid) ([4]; FaSSIF, 24 h): No
pH of filtrate ([4]; FaSSIF, 24 h): 6.6
FC: crystal transfer (XRPD of solid) ([4]; FeSSIF, 1 h): No
pH of filtrate ([4]; FeSSIF, 1 h): 5.3
FC: crystal transfer (XRPD of solid) ([4]; FeSSIF, 2 h): No
pH of filtrate ([4]; FeSSIF, 2 h): 5.3
FC: crystal transfer (XRPD of solid) ([4]; FeSSIF, 4 h): No
pH of filtrate ([4]; FeSSIF, 4 h): 5.3
FC: crystal transfer (XRPD of solid) ([4]; FeSSIF, 24 h): No
solubility ([4]; H2O and FaSSIF, water, in H2O and FaSSIF): 2100 to 2400 µg/mL (≈ 6.26 to 7.15 mM)
FC: crystal transfer (XRPD of solid) ([4]; H2O, 1 h): No
FC: crystal transfer (XRPD of solid) ([4]; H2O, 2 h): No
FC: crystal transfer (XRPD of solid) ([4]; H2O, 4 h): No
pH of filtrate ([4]; H2O, 4 h): 6.7
FC: crystal transfer (XRPD of solid) ([4]; H2O, 24 h): No
solubility ([4]; SGF and FeSSIF, simulated gastric fluid, in SGF and FeSSIF, sample not fully dissolved): 9000 to 10000 µg/mL (≈ 26.8 to 29.8 mM)
FC: crystal transfer (XRPD of solid) ([4]; SGF, 1 h): No
FC: crystal transfer (XRPD of solid) ([4]; SGF, 2 h): No
pH of filtrate ([4]; SGF, 2 h): 5.2
FC: crystal transfer (XRPD of solid) ([4]; SGF, 4 h): No
pH of filtrate ([4]; SGF, 4 h): 5.2
FC: crystal transfer (XRPD of solid) ([4]; SGF, 24 h): No
solubility at 1 h ([4]; fed state simulated intestinal fluid (FeSSIF), fessif, FeSSIF, 1 h): 9400 µg/mL (≈ 28 mM)
solubility at 2 h ([4]; fed state simulated intestinal fluid (FeSSIF), fessif, FeSSIF, 2 h): 9200 µg/mL (≈ 27.4 mM)
solubility at 4 h ([4]; fed state simulated intestinal fluid (FeSSIF), fessif, FeSSIF, 4 h): 9400 µg/mL (≈ 28 mM)
solubility at 24 h ([4]; fed state simulated intestinal fluid (FeSSIF), fessif, FeSSIF, 24 h): 9900 µg/mL (≈ 29.5 mM)
solubility at 1 h ([4]; simulated gastric fluid (SGF), simulated gastric fluid, SGF, 1 h): 9000 µg/mL (≈ 26.8 mM)
solubility at 2 h ([4]; simulated gastric fluid (SGF), simulated gastric fluid, SGF, 2 h): 8900 µg/mL (≈ 26.5 mM)
solubility at 4 h ([4]; simulated gastric fluid (SGF), simulated gastric fluid, SGF, 4 h): 8800 µg/mL (≈ 26.2 mM)
solubility at 24 h ([4]; simulated gastric fluid (SGF), simulated gastric fluid, SGF, 24 h): 9100 µg/mL (≈ 27.1 mM)
AUC(0-t) [5, 6]: 8750 ng·h/mL
MRT last [5, 6]: 5.37 h
AUC(0-t) [5, 7]: 26600 ng·h/mL
MRT last [5, 7]: 5.12 h
AUC(0-t) [5, 8]: 30000 ng·h/mL
MRT last [5, 8]: 5.49 h
AUC(0-t) [5, 9]: 101000 ng·h/mL
MRT last [5, 9]: 5.2 h
bioavailability ([5]; both sexes, Beagle, dog, plasma, po, i.g. 2 mg/kg single): 88%
Cmax [5, 10]: 1350 ng/mL
Tmax [5, 10]: 1.33 h
half-life [5, 10]: 3.89 h
Cmax at 7 days [5, 11]: 4540 ng/mL
Tmax at 7 days [5, 11]: 0.75 h
half-life at 7 days [5, 11]: 4.1 h
bioavailability ([5]; both sexes, Beagle, dog, plasma, po, i.g. 6 mg/kg, first administration): 100%
Cmax [5, 12]: 4710 ng/mL
Tmax [5, 12]: 0.958 h
half-life [5, 12]: 4.2 h
bioavailability ([5]; both sexes, Beagle, dog, plasma, po, i.g. 20 mg/kg single): 101%
Cmax [5, 13]: 13300 ng/mL
Tmax [5, 13]: 0.792 h
half-life [5, 13]: 4.17 h
AUC(0-t) [5, 14]: 9940 ng·h/mL
MRT last [5, 14]: 4.3 h
C0 [5, 15]: 4250 ng/mL
clearance [5, 15]: 3.4 mL/min/kg
half-life [5, 15]: 3.68 h
Vd ([5]; both sexes, beagle, dog, plasma, iv, i.v. 2 mg/kg, male and female, mean, read-out: VdSS): 0.939 L/kg
drug accumulation ([5]; i.g. 6 mg/kg for 7 consecutive days): No significant drug accumulation
male-to-female ratio of AUC0-t ([5]; i.v. 2 mg/kg): 0.748
male-to-female ratio of C0 ([5]; i.v. 2 mg/kg): 0.758
clinical observation ([5]; i.v. 2 mg/kg, i.g. 2, 6, 20 mg/kg, before and after administration and blood sampling): no obvious abnormalities were found
